# Data from patent US20250281607A1, “MEDICAMENT FOR TREATMENT AND/OR PREVENTION OF CANCER” (TORAY INDUSTRIES, INC., priority 2021, published 2025).
# T1: CAPRIN-1 protein (Homo sapiens, UniProt Q14444)
# T1 construct: made in house
# T1 sequence (Q14444 1-709): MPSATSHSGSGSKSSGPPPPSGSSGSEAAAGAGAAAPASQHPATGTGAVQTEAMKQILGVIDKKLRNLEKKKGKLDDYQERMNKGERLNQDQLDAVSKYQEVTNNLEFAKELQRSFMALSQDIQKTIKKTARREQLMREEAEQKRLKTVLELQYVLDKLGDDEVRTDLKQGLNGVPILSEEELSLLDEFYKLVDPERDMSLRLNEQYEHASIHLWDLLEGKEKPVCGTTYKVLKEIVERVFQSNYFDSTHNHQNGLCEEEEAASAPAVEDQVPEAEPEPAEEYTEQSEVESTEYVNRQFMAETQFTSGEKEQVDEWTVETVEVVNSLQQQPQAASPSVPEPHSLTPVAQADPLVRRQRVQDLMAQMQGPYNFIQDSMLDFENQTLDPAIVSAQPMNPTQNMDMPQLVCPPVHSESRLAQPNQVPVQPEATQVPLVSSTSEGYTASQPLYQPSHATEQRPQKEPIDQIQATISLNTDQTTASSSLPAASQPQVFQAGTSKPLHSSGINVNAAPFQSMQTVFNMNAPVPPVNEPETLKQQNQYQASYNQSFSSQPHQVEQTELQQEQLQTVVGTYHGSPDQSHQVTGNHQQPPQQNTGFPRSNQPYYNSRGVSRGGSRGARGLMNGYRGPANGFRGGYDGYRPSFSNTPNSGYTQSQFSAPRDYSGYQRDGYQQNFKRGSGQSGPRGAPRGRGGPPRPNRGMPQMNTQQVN
# B1: monoclonal antibody against CAPRIN-1 described in WO2013/125630: mouse monoclonal antibody; heavy-chain variable region SEQ ID NO: 114, light-chain variable region SEQ ID NO: 115; parent of humanized … (antibody, listed as Mus musculus, V domains shown)
# VH: GPELVKPGASVKMSCKASGYTFTSYVMHWVKQKPGQGLEWIGYINPYNDGTKYNEKFKGKATLTSDKSSSTAYMELSSLTSEDSAVYYCARRYYYGSSGGYFDVWAQDHVRT
# VL: DVQITQSPSYLAASPGETITINCRASKSISKYLAWYQEKPGKTNKLLIYSGSTLQSGIPSRFSGSGSGTDFTLTISSLEPEDFAMYYCQQHNEYPYTFGGGTKLEIKR
# notes: mouse monoclonal antibody; parent of humanized antibody #1
# Tests used:
# [1] = system: colon cancer cell line HCT116; test: THP-1-mediated phagocytic activity against HCT116 (Example 2); format: cell-based, human; settings: then anti-CAPRIN-1 humanized antibody #1 5 μg/mL, FIG. 2
# Protocol: Specifically, in each combination test group (a trametinib combination test group, a fluorouracil combination test group and an irinotecan combination test group), the indicated drug used in combination was applied to human cancer cells, and then the cancer cells were cocultured with human monocytic cells (THP-1) in the presence of the anti-CAPRIN-1 antibody, and the antibody-mediated phagocytic activity against the cancer cells by THP-1 was evaluated. The human-derived cancer cells used were melanoma cell line A375 (used only in the trametinib combination test group), colon cancer cell line HCT116, prostate cancer cell line DU145 (used only in the trametinib combination test group), and lung cancer cell line A549 (used only in the trametinib combination test group). On a 6-well plate, the human-derived cancer cells were cultured for 2 days in the presence of trametinib for the trametinib combination test group, and cultured for 2 days in the presence of the each drug used in combination for the fluorouracil combination test group and the irinotecan combination test group. The concentration of the drug used in combination was set to a concentration that decreased the proliferation rate of the cancer cells by about half at the completion of culture. […]
# Each cancer cell line after the culture was dissociated with TrypLE Express (Thermo), and the cancer cells were stained by the addition of calcein-AM at a final concentration of 0.02 μg/mL and incubation at 37° C. for 30 minutes. […] Further, dead cells were stained with propidium iodide (PI) (final concentration: 0.1 μg/mL), followed by the measurement of fluorescence from the cells by flow cytometry. […] Thus, the phagocytic activity in this evaluation system was calculated as the ratio (%) of APC-positive/calcein-AM-positive cells to the whole calcein-AM-positive population.
# [2] = system: colon cancer cell line HCT116; test: THP-1-mediated phagocytic activity against HCT116 (Examples 3 to 6); format: cell-based, human; settings: cells cultured 2 days with drug at 10 μM, then anti-CAPRIN-1 humanized antibody #1 1 μg/mL
# Protocol: Specifically, in each RAS inhibitor combination test group, the indicated drug used in combination was applied to human cancer cells, and then the cancer cells were cocultured with human monocytic cells (THP-1) in the presence of the anti-CAPRIN-1 antibody, and the antibody-mediated phagocytic activity against the cancer cells by THP-1 was evaluated.
# The human-derived cancer cells used were a colon cancer cell line HCT116. On a 6-well plate, the human-derived cancer cells were cultured for 2 days in the presence of the indicated drug used in combination in the lonafarnib combination test group, the sotorasib combination test group and the salirasib combination test group. […]
# Each cancer cell line after the culture was dissociated with TrypLE Express (Thermo), and the cancer cells were stained by the addition of calcein-AM at a final concentration of 0.04 μg/mL and incubation at 37° C. for 10 minutes. […] Further, dead cells were stained with propidium iodide (PI) (final concentration: 0.1 μg/mL), followed by the measurement of fluorescence from the cells by flow cytometry. […] Thus, the phagocytic activity in this evaluation system was calculated as the ratio (%) of APC-positive/calcein-AM-positive cells to the whole calcein-AM-positive population. […]
# CAPRIN-1 protein = biological target: T1, CAPRIN-1 protein; test: ELISA reactivity with CAPRIN-1 protein immobilized on a plate; format: binding
# Protocol: One hundred (100) μg of a human CAPRIN-1 recombinant protein produced according to Example 3 of WO2010/016526 was mixed with a MPL+TDM adjuvant (Sigma) in an amount equivalent to that of the recombinant protein. The mixture was used as an antigen solution per mouse. The antigen solution was administered intraperitoneally to 6-week-old Balb/c mice (Japan SLC Inc.) and then further administered 3 times […] every week for completion of immunization. A spleen was removed on day 3 after the final immunization and then ground between two sterilized glass slides. Spleen cells were obtained by repeating the following procedure three times: washing with PBS (-) (Nissui Corporation), centrifuging at 1500 rpm for 10 minutes, and removing supernatant. The obtained spleen cells were mixed with mouse myeloma cell SP2/0 (purchased from ATCC) at a ratio of 10:1. The PEG solution prepared by mixing 200 μl of RPMI1640 medium containing 10% FBS heated at 37° C. and 800 μl of PEG1500 (Boehringer) was added to the cells. The solution was incubated for 5 minutes for cell fusion. Centrifugation was performed at 1700 rpm for 5 minutes to remove supernatants. […] Absorbance at 450 nm and absorbance at 595 nm were measured using an absorption spectrometer. As a result, a plurality of hybridomas producing antibodies with high absorbances were selected. […]
molecule,measurement,setting,value
O=c1[nH]cc(F)c(=O)[nH]1 [fluorouracil],phagocytic activity against cancer cells,[1]; cells cultured 2 days with drug at 0.4 μg/mL,16%
CCc1c2c(nc3ccc(OC(=O)N4CCC(N5CCCCC5)CC4)cc13)-c1cc3c(c(=O)n1C2)COC(=O)[C@]3(O)CC [irinotecan],phagocytic activity against cancer cells,[1]; cells cultured 2 days with drug at 15 μM,14%
"COc1cc(Nc2c(C#N)cnc3cc(OCCCN4CCN(C)CC4)c(OC)cc23)c(Cl)cc1Cl [bosutinib, 4-(2,4-dichloro-5-methoxyanilino)-6-methoxy-7-[3-(4-methylpiperazin-1-yl)propoxy]quinoline-3-carbonitrile]",phagocytic activity against cancer cells,[2]; FIG. 3,82%
"O=C(Nc1ccc2[nH]nc(-c3ccncc3)c2c1)[C@@H]1CCN(CC(=O)N2CCN(c3ccc(-c4ncccn4)cc3)CC2)C1 [SCH772984, (3R)-1-[2-oxo-2-[4-(4-pyrimidin-2-ylphenyl)piperazin-1-yl]ethyl]-N-(3-pyridin-4-yl-1H-indazol-5-yl)pyrrolidine-3-carboxamide]",phagocytic activity against cancer cells,[2]; FIG. 5,90%
B1,specific reactivity to CAPRIN-1 protein,CAPRIN-1 protein,exhibiting reactivity
